Here are results for 2 molecules from BindingDB's records for patent US10981904 (Cancer Research Technology, 2021).

In general, IC50 refers to the midpoint of a concentration-inhibition curve. Low values mean higher potency, high ones lower potency.

This assay addresses T1, Glutaminase kidney isoform, mitochondrial [63-669] (Homo sapiens, UniProt O94925).
T1 sequence (O94925 whole entry): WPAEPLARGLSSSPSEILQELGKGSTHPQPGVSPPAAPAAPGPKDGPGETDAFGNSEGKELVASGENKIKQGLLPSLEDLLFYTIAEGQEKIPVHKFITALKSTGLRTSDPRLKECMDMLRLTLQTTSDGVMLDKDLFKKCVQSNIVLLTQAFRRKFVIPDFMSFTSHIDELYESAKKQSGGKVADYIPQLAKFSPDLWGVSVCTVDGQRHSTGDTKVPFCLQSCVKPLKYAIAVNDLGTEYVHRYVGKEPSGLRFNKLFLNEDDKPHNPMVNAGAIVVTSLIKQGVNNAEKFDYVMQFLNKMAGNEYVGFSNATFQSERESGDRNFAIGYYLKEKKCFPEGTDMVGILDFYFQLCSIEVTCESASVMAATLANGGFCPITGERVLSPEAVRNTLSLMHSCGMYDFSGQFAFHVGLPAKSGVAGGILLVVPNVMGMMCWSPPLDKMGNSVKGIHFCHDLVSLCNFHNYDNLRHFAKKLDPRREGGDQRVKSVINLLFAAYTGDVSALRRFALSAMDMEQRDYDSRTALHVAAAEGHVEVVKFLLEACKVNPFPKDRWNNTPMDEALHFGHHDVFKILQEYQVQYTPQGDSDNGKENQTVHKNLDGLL
Briefly: GLS Enzyme Potency Assay. Here is the method: A Glutamate Oxidase/AmplexRed coupled assay was used to measure the ability of compounds to bind to and inhibit the activity of GLS1 in vitro. […] GLS1 was diluted to 2× working concentration and incubated at room temperature to allow the tetrameric/dimeric forms to reach steady state. Assay measurements were performed in buffer comprising 50 mM TRIS pH 7.8, 100 mM NaPO4, pH 7.8, 0.001% v/v Tween20. […] DMSO concentration was maintained at 2% by back filling with DMSO solution. […] 3 μL of 100 mM glutamine diluted in assay buffer was then added and the reaction incubated at room temperature for 60 minutes. […] An artefact version of the assay where the 6His tagged GLS protein and glutamine were replaced with assay buffer was also used to rule out non specific effects on the assay components.

`COC1CN(c2cc([C@H](OC)C(=O)Nc3nnc(N[C@@H]4CCN(c5cccnn5)C4)s3)ccc2F)C1` [US10981904, Example 7(b)] gave a half-maximal inhibitory concentration (IC50) of 192 nM. The molecule `CO[C@H](C(=O)Nc1nnc(N[C@@H]2CCN(c3cccnn3)C2)s1)c1ccccc1C1COC1` [US10981904, Example 25] displayed an IC50 of 1840 nM. Compared with the last molecule, the IC50 is about 9.6-fold higher.
